From patent US12624039B2, “BTK inhibitors” (DIZAL (JIANGSU) PHARMACEUTICAL CO., LTD., priority 2020, dated 2026)
Values after ≈ are worked out from the molar mass of the structure shown. Like-named read-outs stand apart in the source and are kept apart here.

What was measured:
[1] = molecular target: T1, Recombinant BTK wild type (BTK WT) (Homo sapiens, UniProt Q06187); assay: BTK WT HTRF kinase assay; format: biochemical; conditions: 30 min pre-incubation, 120 min reaction
T1 construct: purchased Thermo fisher
Protocol: (§1) Recombinant BTK wild type (BTK WT) was purchased from Thermo fisher.
(§2) In brief, recombinant kinases were pre-incubated in the presence or absence of compound at room temperature for 30 minutes. The reaction was initiated by the addition of the ATP and substrate peptide which could be phosphorylated by kinases in the reaction. After 120 minutes incubation, the reaction was stopped by the addition of the detection reagent mix containing EDTA.

Recombinant BTK(C481S) = molecular target: T2, Recombinant BTK(C481S) (Homo sapiens, UniProt Q06187, C481S); assay: BTK C481S HTRF kinase assay; format: biochemical; conditions: 30 min pre-incubation, 120 min reaction
T2 construct: purchased SignalChem
Protocol: [The procedure below names another variant; the source lists this variant under the same test.] as §1, §2

[2] = molecular target: T3, p-BTK (Phospho-Btk Tyr223) in TMD-8 cells (Homo sapiens, UniProt Q06187); assay: TMD8 cell line p-BTK Elisa assay; format: cell-based; conditions: for Maximal Inhibition Level: p-BTK ELISA; for IC50: pervanadate 100 μM, Tyr223 ELISA
T3 construct: endogenous in cells; host or cells: TMD-8
Protocol: The test compounds were added to the cells and cells were incubated for 0.5 hour at 37° C., 5% CO2. Then pervanadate solution was added to the cells to make a final concentration of 100 μM, and cells were incubated for a further 1 hour at 37° C., 5% CO2. […] The plate was read on a Multiscan Spectrum reader set to 450 nm wavelengths.

[3] = In vitro human hepatocytes clearance assay; format: in vitro ADME
Protocol: In Vitro Rat/Human Hepatocytes Clearance Assay
Rat hepatocytes in male gender and human hepatocytes in mixed gender were obtained from commercial vendors (e.g., BioreclamationIVT) and stored at −150° C. prior to use. 10 mM stock solutions of tested compounds were prepared in DMSO. Thawing medium and supplement incubation medium (serum-free) were placed in a 37° C. water bath for at least 15 minutes prior to use. Stock solutions were diluted to 100 μM by combining 198 μL acetonitrile and 2 μL of 10 mM stock solution.
Vials of cryopreserved hepatocytes were removed from storage, ensured that vials remain at cryogenic temperatures. The vials were thawed in a 37° C. water bath with gently shaking. Vials were kept in a water bath until all ice crystals had dissolved and were no longer visible. Vials were sprayed with 70% ethanol before being transferred to a biosafety cabinet. And then the contents were poured into the 50 mL thawing medium conical tube. Vials were centrifuged at 100 g for 10 minutes at room temperature. Thawing medium was aspirated and hepatocytes were resuspended with serum-free incubation medium to yield ^˜1.5×10^6 cells/mL.
Cell viability and density were counted using a Trypan Blue exclusion, and then cells were diluted with serum-free incubation medium to a working cell density of 1×10^6 viable cells/ml. A portion of the hepatocytes at 1×10^6 viable cells/mL was boiled for 10 min prior to adding to the plate as negative control to eliminate the enzymatic activity so that little or no substrate turnover should be observed. The inactivated hepatocytes were used to prepare negative samples, which were used to exclude the misleading factor that resulted from instability of chemical itself.
Aliquots of 247.5 μL hepatocytes were dispensed into each well of a 96-well non-coated plate. The plate was placed in the incubator on an orbital shaker for approximately 10 minutes. Aliquots of 2.5 μL of the 100 μM test compounds were added into respective wells of the non-coated 96-well plate to start the reaction. This assay was performed in duplicate. The plate was incubated in the incubator on an orbital shaker for the designed time points. 20 μL of contents were transferred and mixed with 6 volumes (120 μL) of cold acetonitrile with internal standard to terminate the reaction at time points of 5, 15, 30, 45, 60, 80 and 100 minutes. Samples were centrifuges for 20 minutes at 4000 g and aliquots of 100 μl of the supernatants were used for LC-MS/MS analysis for measurement of test compounds.
In vitro hepatocyte clearance was estimated based on determination of elimination half-life (T1/2) of compounds disappearance from their initial concentrations. Peak area ratios of each compound (test or control) to IS was calculated. Ln (% Control) versus Incubation Time (min) curve was plotted, and the slope of a linear fitting line was calculated. Drug elimination rate constant k (min-1), T1/2 (min), and in vitro intrinsic clearance CLint (μL/min/E6) was calculated according to the following equations: k=−slope T1/2=0.693/k CLint=k/Chep • Where Chep (cells×μL-1) is the cell concentration in the incubation system. Procedure for Log D Determination

[4] = Protein binding in human plasma by equilibrium dialysis; format: in vitro ADME; conditions: 18 hours at 37° C.
Protocol: [formula] DF means the dilution factor. Procedure for Protein Binding Measurements in Human Plasma by Using Equilibrium Dialysis
Add 597 μL of blank plasma into each vial of a new plastic plate or separate plastic tube by addition of 3 μL of the working solution of each cassette, vortex at 1,000 rpm for 5 minutes. The final percent volume of organic solvent is 0.5% and the final concentration for test compound is 5 μM. Immediately transfer 50 μL of the spiked plasma suspension to a 96-well plate to act as T=0 control sample. The samples are treated the same as the samples after incubation. Place all remaining spiked plasma in the incubator for the duration of the study.
Place inserts open end up into the wells of the base plate. Add 500 μL of phosphate buffer (pH 7.4) to the buffer chamber, which is indicated by the white ring. Add 300 μL of spiked plasma sample into the sample chamber, which is indicated by the red ring. Cover the unit with gas permeable lid and incubate for 18 hours at 37° C. at 300 rpm with 5% CO2 on an orbital shaker in the CO2 incubator. At the end of incubation, remove lid and pipette 50 μL of post-dialysis samples from both buffer and plasma chambers into separated 96-well plate for analysis, respectively.
At the same time, the remaining spiked plasma sample in the plastic plate or separate plastic tube is incubated for 18 hours at 37° C. with 5% CO2 in the CO2 incubator. At T=18 hours, transfer 50 μL of the original spiked plasma suspension to the 96-well plate for analysis.
Add 50 μL of Human plasma to the buffer samples, and an equal volume of PBS to the collected plasma samples. Vortex the plate at 1,000 rpm for 2 minutes and add 400 μL of acetonitrile containing an appropriate internal standard (IS) to precipitate protein and release compound. Vortex at 1,000 rpm for 10 minutes. Centrifuge for 30 minutes at 4,000 rpm. Transfer 250 μl of the supernatant to new 96-well plates and centrifuge again (4,000 rpm, 30 minutes). Then transfer 100 μL of the supernatant to new 96-well plates for analysis. Add 100 μL of distilled water to each sample and vortex for 5 minutes at 1,000 rpm for analysis by LC-MS/MS. All compounds are tested in singlicate at 5 μM in human plasma.
All calculations are carried out using Microsoft Excel.
Calculate the percentage of unbound, percentage of bound and recovery of test compound as follows: […]

DMSO solubility = format: physicochemical

T3 sequence (Q06187 whole entry): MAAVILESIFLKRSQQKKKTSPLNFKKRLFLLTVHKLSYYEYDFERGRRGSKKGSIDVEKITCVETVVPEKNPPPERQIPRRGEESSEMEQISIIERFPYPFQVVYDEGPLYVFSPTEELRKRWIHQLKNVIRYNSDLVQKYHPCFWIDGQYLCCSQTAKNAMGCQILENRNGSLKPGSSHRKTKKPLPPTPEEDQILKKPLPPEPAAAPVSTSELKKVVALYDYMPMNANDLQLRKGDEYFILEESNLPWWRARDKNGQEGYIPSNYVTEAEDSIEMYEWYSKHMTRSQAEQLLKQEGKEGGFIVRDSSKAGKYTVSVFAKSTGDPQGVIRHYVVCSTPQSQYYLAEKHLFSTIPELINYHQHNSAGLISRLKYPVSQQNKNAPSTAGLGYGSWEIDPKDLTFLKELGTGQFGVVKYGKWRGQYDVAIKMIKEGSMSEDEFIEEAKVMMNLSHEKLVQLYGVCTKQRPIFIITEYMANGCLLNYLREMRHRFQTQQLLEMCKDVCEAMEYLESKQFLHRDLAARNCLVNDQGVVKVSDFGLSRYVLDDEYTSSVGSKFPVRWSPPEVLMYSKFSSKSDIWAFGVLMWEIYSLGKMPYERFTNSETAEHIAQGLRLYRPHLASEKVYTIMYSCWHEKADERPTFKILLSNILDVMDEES
T1 sequence (Q06187 whole entry): as above
T2 sequence (Q06187 whole entry C481S): as the sequence (Q06187 whole entry) above, with C481S counted along it

## Nc1nccn2c(C3CCC(CO)OC3)nc(-c3ccc(Oc4ccccc4)c(F)c3F)c12 (single isomer, unassigned) [Compound 4, (5-(8-amino-1-(2,3-difluoro-4-phenoxyphenyl)imidazo[1,5-a]pyrazin-3-yl)tetrahydro-2H-pyran-2-yl)methanol]
[1]
  IC50: 0.49 nM
Recombinant BTK(C481S)
  IC50: 0.61 nM
[2]
  Maximal Inhibition Level: 97.4%
  IC50: 30.7 nM
[3]
  Human Hep Clint: 5.6 μL/min/10∧6 cells
[4]; human, plasma, pH 7.4, human plasma, read-out: hPPB (fu %)
  fraction unbound at 18 h, 5 μM: 0.088
DMSO solubility; kinetic from dmso stock
  solubility: 63.1 µM (≈ 28.6 µg/mL)

## Nc1ncnn2c(C3CCC(CO)OC3)nc(-c3ccc(Oc4ccccc4)cc3F)c12 (single isomer, unassigned) [Compound 11, Trans-(5-(4-amino-5-(2-fluoro-4-phenoxyphenyl)imidazo[5,1-f][1,2,4]triazin-7-yl)tetrahydro-2H-pyran-2-yl)methanol]
[1]
  IC50: 4.51 nM
Recombinant BTK(C481S)
  IC50: 5.03 nM
[2]
  Maximal Inhibition Level: 99.3%
  IC50: 34.7 nM
[3]
  Human Hep Clint: 3.6 μL/min/10∧6 cells
[4]; human plasma, 5 μM, fraction unbound
  hPPB (fu %): 8.9%
DMSO solubility
  solubility: <1.6 µM
